Test systems include A549 NSCLC; KM12 colon; M14 melanoma; MOLT-4 leukemia; NCI-H460 lung; OVCAR-4 ovarian; PC-3 prostate; CCRF-CEM leukemia.
What all share (assay): NCI anticancer screen, dose series, 48 h

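Briefly, cells in 96-well plates were exposed to five compound concentrations for 48 h, and endpoints were estimated by linear interpolation. Abbreviation: GI50, concentration required for 50% inhibition of growth. TGI: total growth inhibition.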

Take `CC(=O)c1c(O)cc(O)c(-c2c(C)cc(O)c3c2C(=O)c2cccc(O)c2C3=O)c1O`: the TGI stood at 34.2 µM in the assay on A549 NSCLC; 33.5 µM in the assay on KM12 colon; 51.4 µM in the assay on M14 melanoma; 38.5 µM with MOLT-4 leukemia; 31.7 µM in the assay on NCI-H460 lung; 28.5 µM in the assay on OVCAR-4 ovarian. The TGI with PC-3 prostate is 30.6 µM.
For `N=C(N)c1ccc(-c2ccc(-c3ccc(Cl)cc3Cl)s2)nc1`, the GI50 is 2.27 µM in the assay on CCRF-CEM leukemia, 1.76 µM in the assay with KM12 colon, 1.85 µM in the assay with M14 melanoma and 1.86 µM with PC-3 prostate. Besides, the TGI is 5.01 µM in the assay on CCRF-CEM leukemia, 3.19 µM with KM12 colon, 3.63 µM with M14 melanoma and 3.67 µM in the assay on PC-3 prostate.
Turning to `CCCCCCCCCCCCCCCCCCNc1nc(=O)n(C2CC(OP(=O)(O)OCC3OC(n4cc(F)c(=O)[nH]c4=O)CC3O)C(CO)O2)cc1F` (centres undefined), the TGI in the assay with A549 NSCLC was over 100 µM; in the assay with CCRF-CEM leukemia it was 42.7 µM; in the assay on KM12 colon it was 27.8 µM; in the assay with M14 melanoma, 43.3 µM; in the assay on MOLT-4 leukemia, 41.9 µM; in the assay with OVCAR-4 ovarian it was over 100 µM. In the assay with PC-3 prostate, this molecule came in with a TGI of over 100 µM.
As to `Fc1ccc2c(c1)nc1n2C(c2c(F)cccc2F)SC1` (centres undefined), the TGI in the assay on A549 NSCLC is over 100 µM; in the assay on KM12 colon, 64.4 µM; in the assay on M14 melanoma, over 100 µM; in the assay with MOLT-4 leukemia it was 69 µM; in the assay on NCI-H460 lung it was over 100 µM; in the assay on OVCAR-4 ovarian, over 100 µM. For the same molecule, in the assay with PC-3 prostate, the TGI is over 100 µM.
With `COc1ccc(C2=Nc3c(nc(SC)[nH]c3=O)NC(c3ccccc3)C2)cc1` (centres undefined), the TGI with A549 NSCLC is 66.5 µM; with CCRF-CEM leukemia it was 98.6 µM; in the assay on KM12 colon it was 30.2 µM; with M14 melanoma, 66 µM; in the assay with MOLT-4 leukemia it was 57.1 µM; in the assay on PC-3 prostate it was over 100 µM.
On to `Cc1ccsc1/C=N/Nc1cc(C)c2ccccc2n1`, for which the TGI with A549 NSCLC is 52.3 µM; in the assay with CCRF-CEM leukemia, 57.8 µM; in the assay with KM12 colon, 46 µM; with M14 melanoma it was 34.4 µM; in the assay on MOLT-4 leukemia, 35.1 µM; in the assay on OVCAR-4 ovarian, 72.2 µM. For the same molecule, the TGI with PC-3 prostate was 51.4 µM.
Regarding `COc1cc2nc(-c3cccs3)nc(N3C(c4cc(OC)c(OC)c(OC)c4)=NNC(=O)c4ccccc43)c2cc1OC`, the TGI was over 100 µM with A549 NSCLC; over 100 µM in the assay on KM12 colon; over 100 µM with M14 melanoma; over 100 µM in the assay with MOLT-4 leukemia; over 100 µM with NCI-H460 lung; 42.1 µM with OVCAR-4 ovarian. In the assay on PC-3 prostate, this molecule showed a TGI of over 100 µM.
In the case of `CNC(=O)C1OC(n2cnc3c(NCc4cccc(I)c4)nc(Cl)nc32)C(O)C1O` (centres undefined), the TGI with CCRF-CEM leukemia was found to be 76.6 µM; with KM12 colon, 24.3 µM; in the assay with M14 melanoma, 21.9 µM; in the assay with MOLT-4 leukemia, 53.3 µM; in the assay with PC-3 prostate, 24.1 µM.
For `COc1ccc(S(=O)(=O)Nc2cc(Sc3cccc4cccnc34)c(O)c3ccccc23)cc1`, the GI50 in the assay with A549 NSCLC is 0.587 µM; with KM12 colon, 1.64 µM; in the assay with M14 melanoma, 1.3 µM; in the assay with MOLT-4 leukemia, 0.563 µM; with NCI-H460 lung, 0.466 µM; in the assay on OVCAR-4 ovarian it was 0.609 µM. Besides, the GI50 in the assay with PC-3 prostate is 0.512 µM. The TGI is 12.8 µM in the assay on A549 NSCLC; 15 µM with KM12 colon; 12.1 µM with M14 melanoma; 8.08 µM in the assay with MOLT-4 leukemia; 10.5 µM with NCI-H460 lung; 1.93 µM in the assay with OVCAR-4 ovarian. For the same molecule, in the assay on PC-3 prostate, the TGI came to 10.6 µM.
Regarding `CC(C)=C=CP(=O)(O)c1ccccc1`, the TGI in the assay on A549 NSCLC, with KM12 colon, in the assay on M14 melanoma, with NCI-H460 lung, with OVCAR-4 ovarian and in the assay with PC-3 prostate was over 100 µM throughout.
In the case of `COc1cc(-c2nc(SC)nc3c2CCc2ccccc2-3)cc(OC)c1OC`, the TGI is over 100 µM in the assay on A549 NSCLC; over 100 µM in the assay on CCRF-CEM leukemia; over 100 µM in the assay on KM12 colon; over 100 µM in the assay with M14 melanoma; 96.2 µM in the assay with MOLT-4 leukemia; over 100 µM with OVCAR-4 ovarian. Further, the TGI with PC-3 prostate is over 100 µM.
Turning to `Cc1ccc2c(=O)cc(-c3cccc(F)c3)[nH]c2n1`, the TGI is over 100 µM with A549 NSCLC; over 100 µM with CCRF-CEM leukemia; 1.29 µM in the assay with KM12 colon; over 100 µM in the assay on M14 melanoma; over 100 µM in the assay on MOLT-4 leukemia; over 100 µM in the assay on OVCAR-4 ovarian.
For `NS(=O)(=O)c1ccc(NCc2nc3ccccc3[nH]2)cc1`, the TGI in the assay on A549 NSCLC, in the assay on KM12 colon, in the assay on M14 melanoma, with NCI-H460 lung, in the assay on OVCAR-4 ovarian and in the assay with PC-3 prostate was over 100 µM throughout.
For `COc1ccc(C2NC(N)=C(C#N)C3=C2C(C)CCC3)cc1OC` (centres undefined), the TGI with CCRF-CEM leukemia, in the assay on KM12 colon, with M14 melanoma, in the assay with MOLT-4 leukemia and with PC-3 prostate was over 100 µM each time.
With `CC(C)N1[C@@H]2CCCC[C@H]2N(C(C)C)[P+]1=O`, the TGI in the assay with A549 NSCLC, in the assay with CCRF-CEM leukemia, with KM12 colon, in the assay on M14 melanoma, in the assay on MOLT-4 leukemia and in the assay with NCI-H460 lung was over 100 µM each time.

Values taken from PubChem BioAssay (NCI).
